Laboratory results: patent publication US11964984B2, “TXNIP-TRX complex inhibitors and methods of using the same” (CITY OF HOPE, priority 2020, dated 2024)

Tests used:
[1] = system: TXNIP mRNA; assay: TXNIP mRNA expression in THP1 cells under 25 mM glucose (RT-PCR); format: cell-based, human; conditions: for TXNIP mRNA expression: concentration range
Method: FIGS. 2A-2B. FIG. 2A: C30 and C38 inhibited TXNIP mRNA expression in THP1 cells. THP1 cells were cultured under 25 mM glucose with the indicated concentrations of compounds for 72 hours. Cells were then collected for total RNA preparation. RT-PCR was performed, and data shown are the mean±SEM from triplicates. Statistical analysis was performed using one-way ANOVA, *p<0.0001. FIG. 2B: C30 and C38 inhibited TNF-α mRNA expression in THP1 cells. THP1 cells were cultured under 25 mM glucose with various concentrations of compounds as indicated for 72 hours and collected for total RNA preparation. RT-PCR was performed, and data shown are the mean±SEM from triplicates. Statistical analysis was performed using one-way ANOVA: *<0.02; **<0.0001.
FIG. 6. C38 analogues effects on TXNIP mRNA expression in THP1 cells. THP1 cells were cultured under 25 mM glucose with 2.5 uM of compounds for 72 h. Total RNA was collected. RT-PCR was performed in triplicate and data shown are the mean±SEM. Statistical analysis was performed using one-way ANOVA: *p<0.0001.
FIG. 7. C38 and analogue E2 effects on TXNIP mRNA levels in THP cells. THP1 cells were cultured under 25 mM glucose with several concentration of C38 and E2 as indicated for 72 hours. Total RNA was prepared. RT-PCR was performed in triplicate and data shown are the mean±SEM. Statistical analysis was performed for each column vs. without compound control using one-way ANOVA: *p<0.0001.
C30 and C38 inhibited TXNIP mRNA expression in THP1 cells.
Discovery of lead compound analogues. A search of chemical libraries was performed in the interest of identifying possible lead compound analogues. Analogues to C38 were identified. To determine the properties of the analogues, we treated THP1 cells with the E batch compounds for three days, prepared RNA and measured TXNIP mRNA levels.
RNA extraction and quantitative RT-PCR. RNA was extracted using the Direct-zol™ RNA MiniPrep Plus (Zymo Research). Reverse transcription of RNA samples into cDNA was performed using the GeneAmp RNA PCR Kit (Applied Biosystems), dNTP (from Roche Applied Science), Rnase inhibitor, MULV Reverse Transcriptase and Random hexamers reagent (all from Invitrogen). Diluted cDNA was quantified using real-time PCR performed with Power SYBR Green qPCR MasterMix (Applied Biosystem) and 7500 real-time PCR system (Applied Biosystems). The HPRT1 gene was used as an internal control.

[2] = target: T1, TXNIP/TRX interaction (Homo sapiens, UniProt Q9H3M7); assay: TXNIP/TRX co-immunoprecipitation in THP1 cells; format: cell-based; conditions: 25 mM glucose, 5 uM compound, up to 72 hours
T1 construct: endogenous in cells; host or cells: THP1 cells cultured under 25 mM glucose; nuclear cell extracts
T1 sequence (Q9H3M7 1-391): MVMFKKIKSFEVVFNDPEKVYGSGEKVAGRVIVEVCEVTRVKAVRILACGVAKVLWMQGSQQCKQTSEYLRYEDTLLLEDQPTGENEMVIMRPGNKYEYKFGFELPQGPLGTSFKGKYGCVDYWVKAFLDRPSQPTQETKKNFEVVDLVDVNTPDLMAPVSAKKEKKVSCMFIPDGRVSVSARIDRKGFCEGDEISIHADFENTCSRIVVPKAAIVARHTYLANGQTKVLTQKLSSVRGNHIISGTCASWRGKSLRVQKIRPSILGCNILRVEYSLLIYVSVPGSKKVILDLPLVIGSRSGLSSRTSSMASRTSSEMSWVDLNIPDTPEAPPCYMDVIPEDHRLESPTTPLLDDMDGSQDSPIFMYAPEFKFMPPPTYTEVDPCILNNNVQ
Method: FIG. 8. Effects of C30 and C38 on TXNIP/TRX interaction. THP1 cells were cultured under 25 mM glucose with 5 uM C30 or C38 for 72 hours. Aliquots were taken at different time points as indicated and nuclear cell extracts were prepared. Standard co-IP was performed with mouse anti-TRX Ab overnight. Beads were washed with buffer and blots treated with rabbit anti-TXNIP antibody (Ab) for detection of the complex (upper band).
Experimental testing of small molecules: We developed several different bench-based assays to perform rigorous and reproducible tests for the predicted hit molecules. These assays include testing direct binding to TXNIP as well as functional assays including under diabetic high glucose conditions. The assays are: (1) drug affinity responsive target stability test that tests the direct binding of the compounds. In this assay, when a compound binds to its target molecule, it can reduce the rate of its proteolytic digestion. (2) This assay looks for compounds that can interfere with the interaction between TXNIP and TRX in THP-1 monocytes treated with high glucose. TXNIP is highly expressed in cells treated with high glucose, and therefore would have high concentration of TXNIP/TRX complexes in the cell extract. Co-immunoprecipitation was done in these extracts through adding TRX antibody, and then the effects of compounds added were tested. […]

[3] = system: SOD1 mRNA; assay: SOD1 mRNA in primary human pancreatic islets under 25 mM glucose (RT-PCR); format: cell-based; conditions: human pancreatic islets (500 IEQ), 2.5 uM, 48 h
Method: FIGS. 12A-12B. […] Human pancreatic islets (500 IEQ) were cultured with PIM(R) (Prodo Labs) medium under 25 mM glucose with 2.5 uM of the indicated compounds for 48 h. Total RNA was collected. RT-PCR was performed in triplicate and data shown are the mean±SEM. Statistical analysis was performed using one-way ANOVA: *p<0.0001. […] Human pancreatic islets (500 IEQ) were cultured with PIM(R) (Prodo Labs) under 25 mM glucose with 2.5 uM of the indicated compounds for 48 h. Total RNA was collected. RT-PCR was performed in triplicate and data shown are the mean+SEM. Statistical analysis was performed using one-way ANOVA: *p<0.0001.
Testing lead compounds in human pancreatic islets. To further explore the effects of the lead compounds as possible therapies in diabetes, we conducted translational studies in primary human pancreatic islets (obtained from the City of Hope islet isolation center).
RNA extraction and quantitative RT-PCR. RNA was extracted using the Direct-zol™ RNA MiniPrep Plus (Zymo Research). […] Diluted cDNA was quantified using real-time PCR performed with Power SYBR Green qPCR MasterMix (Applied Biosystem) and 7500 real-time PCR system (Applied Biosystems). […]

| TXNIP association/interaction with TRX (co-IP band) [2] | SMILES | concentration at which inhibition of TXNIP mRNA is still effective ([1]; 72 hours) | TXNIP mRNA expression ([1]; 72 hours) | SOD1 mRNA levels [3] | TXNIP mRNA expression (C38 analogues screen) ([1]; 2.5 uM compound, 72 h) |
| --- | --- | --- | --- | --- | --- |
| significantly reduced | COc1cc(N2CC[C@@H](c3ccc4ccccc4c3)[C@H](O)C2)nc(N)n1 [Compound C30] | 0.15 µM | inhibit TXNIP expression in a dose-dependent manner | does not alter SOD1 mRNA levels |  |
| this interference was clearly reduced | c1ccc(CCNc2ncnc3c2oc2ccccc23)cc1 [Compound C38] |  | inhibit TXNIP expression in a dose-dependent manner | does not alter SOD1 mRNA levels | strongly inhibited TXNIP mRNA expression |
